What was measured:
Format in all cases: in vivo
[1] = tested on: western corn rootworm (Diabrotica virgifera virgifera); assay: Western corn rootworm (WCRW) soil test; settings: soil concentration 0.15 or 0.5 ppm; neonate larvae, mortality six days after infestation
Description: (§1) For the tick, aphids, souther armyworm, tobacco budworm, house fly, Mexican bean beetle, American cockroach, cat flea, souther corn rootworm, western corn rootworm, black cutworm, and southern root-knot nematode, a solution or suspension was prepared by adding the test compound to a solution of dimethylformamide, acetone, emulsifiers which are alkylaryl polyether alcohols organic sulfonates, and water. The result was a 100 or 500 ppm concentration of the test compound.
For the western corn rootworm test, the water-acetone-DMF-emulsifier solution was adjusted for a treatment rate of 0.15 or 0.5 ppm.
Western corn rootworm (WCRW): The 500 ppm test formulation was applied to dry sandy loam soil contained in a glass jar for a soil concentration of 0.15 or 0.5 ppm. As an untreated control, an aliquot of a water-acetone-DMF-emulsifier solution containing no test compound was applied in a similar manner. After incubating covered for 24 hours, the soil was mixed and four germinated corn seedlings were added to the jar. Ten neonate western corn rootworm larvae were placed in the jar. Six days after infestation, mortality was assessed by Berlese funnel extraction.

[2] = tested on: house fly (Musca domestica); assay: House fly (HF) bait test; settings: sucrose bait, 100 or 250 ppm; adult flies, mortality after 24 hours
Description: as §1
For house fly tests, the water-acetone-DMF-emulsifier solution was adjusted with a 20% by weight aqueous solution of sucrose to provide a final 100 or 250 ppm concentration of the test compound.
House fly (HF): Four to six day old adult house flies were used. The files were immobilized by anesthetizing with carbon dioxide. A bait cup was prepared which contained the 100 or 250 ppm test compound formulation/sucrose solution and one or two absorbent cotton pad(s). As an untreated control, a water-acetone-DMF-emulsifier-sucrose solution containing no test compound was applied in a similar manner. The bait cup was introduced inside the cage prior to admitting 12-25 anesthetized flies. Mortality was assessed after 24 hours.

[3] = tested on: southern corn rootworm (Diabrotica undecimpunctata howardi); assay: Southern corn rootworm (SCRW) soil test; settings: soil concentration 2.5, 5, 6.75 or 10 ppm; mortality eight days after infestation
Description: as §1
For southern corn rootworm and black cutworm tests, the water-acetone-DMF-emulsifier solution was adjusted for a treatment rate of 2.5, 5, 6.75 or 10 ppm.
Southern corn rootworm (SCRW), Black cutworm (BCW): Corn seeds were placed in a glass jar and covered with dry sandy loam soil. The 500 ppm test formulation was applied for a soil concentration of 2.5, 5, 6.75 or 10 ppm. As an untreated control, an aliquot of a water-acetone-DMF-emulsifier solution containing no test compound was applied in a similar manner. After incubating covered for 24 hours, the soil was mixed and inoculated with approximately 25 southern corn rootworm eggs. Following an additional 48 hours, two late second to early third instar black cutworms were placed in the jar with a portion of insect diet. Eight days after infestation, mortality was assessed visually for cutworm and by Berlese funnel extraction for rootworm.

[4] = tested on: southern armyworm (Spodoptera eridania); assay: Southern armyworm (SAW) treated bean leaf test; settings: bean leaves, 100 or 500 ppm; second instar larvae, five days
Description: as §1
Southern armyworm (SAW), Mexican bean beetle (MBB): Bean leaves were wet to runoff with the 100 or 500 ppm test compound formulation. As an untreated control, a water-acetone-DMF-emulsifier solution containing no test compound was also applied wet to runoff to bean leaves. Five or six randomly selected second instar southern armyworn larvae or Mexican bean bettle larvae were introduced into each plastic container with the dry treated leaves. The container was closed and held for five days. Larvae which were unable to move the length of the body, even upon stimulation by prodding, were considered dead.

[5] = tested on: cotton aphid (Aphis gossypii); assay: Cotton aphid (CA) foliar spray test; settings: cotton plants wet to runoff, 100 or 500 ppm; dead aphids counted after three days
Description: as §1
Buckthorn aphid (BA) or cotton aphid (CA): Adult and nymphal stages of buckthorn or cotton aphid were reared on potted dwarf nasturtium or cotton plants, respectively. Plants infested with 100-150 aphids were wet to runoff with the 100 or 500 ppm test compound formulation. As an untreated control, a water-acetone-DMF-emulsifier solution containing no test compound was also applied to runoff to infested plants. The treated plants were stored for one day for buckthorn aphid and three days for cotton aphid, after which the dead aphids were counted.

[6] = tested on: southern root-knot nematode (Meloidogyne incognita); assay: Southern root-knot nematode (SRKN) soil test; settings: soil treatment 23 kg/ha; tomato or cotton root galling rated after 2-3 weeks
Description: as §1
For the southern root-knot nematode tests, the water-acetone-DMF-emulsifier solution was adjusted for a treatment rate of 23 kg/ha soil concentration.
Southern root-knot nematode (SRKN): Eggs and second stage juveniles (J2s) of southern root-knot nematodes were obtained from infected roots of reared tomato plants. Pots containing moist soil were treated with the test compound solution for a treatment rate of 23 kg/ha. As an untreated control, an aliquot of a water-acetone-DMF-emulsifier solution containing no test compound was applied in a similar manner. Immediately after treatment, eggs or J2s of southern root-knot nematode were added to the treated soil. For test with cotton, the seeds were placed on top of the soil the day of treatment and inoculation. For the tests with tomato, the seedlings were transplanted in the pot three days after treatment. The pots were kept in the greenhouse for 2-3 weeks. At the termination of the test, roots of the tomato or cotton seedlings were evaluated for galling on a rating scale from 1 to 5 with one equal to severe galling, relative to untreated control, and five to no galling, i.e., complete control.

[7] = tested on: tobacco budworm (Heliothis virescens); assay: Tobacco budworm (TBW) treated cotton leaf test; settings: cotton leaves, 100 ppm; second instar larvae, five days
Description: as §1
Tobacco budworm (TBW): Cotton leaves were wet to runoff with the 100 ppm test compound formulation. As an untreated control, a water-acetone-DMF-emulsifier solution containing no test compound was also applied wet to runoff to cotton leaves. Ten randomly selected second instar tobacco budworm larvae were introduced into plastic containers in which moist dental wicks and the dry treated leaves had been placed. The cups were closed and held for five days. Larvae which were unable to move the length of the body, even upon stimulation by prodding, were considered dead.

[8] = tested on: American cockroach (Periplaneta americana); assay: American cockroach (ACR) treated food pellet test; settings: food pellets with 500 ppm formulation; nymphs, contact and feeding mortality 1 and 5 days after infestation
Description: as §1
American cockroach (ACR): Cat food or dog food pellets were added to jars containing 1-2 mls of the 500 ppm test formulation. As an untreated control, an aliquot of a water-acetone-DMF-emulsifier solution containing no test compound was applied in a similar manner. After 48 hours, roach nymphs were added to the jar. Contact and feeding mortally was assessed 1 and 5 days after infestation.

SMILES	WCRW [1]	HF [2]	SCRW [3]	SAW [4]	CA [5]	SRKN [6]	TBW [7]	ACR [8]
N#Cc1nn(-c2c(Cl)cc(C(F)(F)F)cc2Cl)c(C=O)c1SC(F)(F)F [Compound 2, 3-Cyano-1-(2,6-dichloro-4-trifluoromethylphenyl)-5-formyl-4-trifluoromethylthiopyrazole]	+ (active against 1 or more insects described above up to 100% mortality. This activity is indicated by a “+”)	–	–	–	–	–	–	–
COC(OC)c1c(SC(F)(F)F)c(C#N)nn1-c1c(Cl)cc(C(F)(F)F)cc1Cl [Compound 4, 3-Cyano-1-(2,6-dichloro-4-trifluoromethylphenyl)-5-dimethoxymethyl-4-trifluoromethylthiopyrazole]	+ (active against 1 or more insects described above up to 100% mortality. This activity is indicated by a “+”)	–	–	–	–	–	–	–
COC(C#N)c1c(SC(F)(F)F)c(C#N)nn1-c1c(Cl)cc(C(F)(F)F)cc1Cl (stereo not shown) [Compound 6, 3-Cyano-5-{(1-cyano-1-methoxy)methyl}-1-(2,6-dichloro-4-trifluoromethylphenyl)-4-trifluoromethylthiopyrazole]	+ (active against 1 or more insects described above up to 100% mortality. This activity is indicated by a “+”)	+ (active against 1 or more insects described above up to 100% mortality. This activity is indicated by a “+”)	+ (active against 1 or more insects described above up to 100% mortality. This activity is indicated by a “+”)	+ (active against 1 or more insects described above up to 100% mortality. This activity is indicated by a “+”)	+ (active against 1 or more insects described above up to 100% mortality. This activity is indicated by a “+”)	–	–	–
CN(C)N=Cc1c(SC(F)(F)F)c(C#N)nn1-c1c(Cl)cc(C(F)(F)F)cc1Cl [Compound 11, 3-Cyano-1-(2,6-dichloro-4-trifluoromethylphenyl)-5-(N,N-dimethylaminoiminomethylidenyl)-4-trifluoromethylthiopyrazole]	+ (active against 1 or more insects described above up to 100% mortality. This activity is indicated by a “+”)	+ (active against 1 or more insects described above up to 100% mortality. This activity is indicated by a “+”)	+ (active against 1 or more insects described above up to 100% mortality. This activity is indicated by a “+”)	–	–	–	–	–
COC(OC)c1c([S+]([O-])C(F)(F)F)c(C#N)nn1-c1c(Cl)cc(C(F)(F)F)cc1Cl (stereo not shown) [Compound 13, 3-Cyano-1-(2,6-dichloro-4-trifluoromethylphenyl)-5-dimethoxymethyl-4-trifluoromethylsulfinylpyrazole]	+ (active against 1 or more insects described above up to 100% mortality. This activity is indicated by a “+”)	–	–	–	+ (active against 1 or more insects described above up to 100% mortality. This activity is indicated by a “+”)	+ (active against 1 or more insects described above up to 100% mortality. This activity is indicated by a “+”)	+ (active against 1 or more insects described above up to 100% mortality. This activity is indicated by a “+”)	+ (active against 1 or more insects described above up to 100% mortality. This activity is indicated by a “+”)
COC(OC)c1c(S(=O)(=O)C(F)(F)F)c(C#N)nn1-c1c(Cl)cc(C(F)(F)F)cc1Cl [Compound 15, 3-Cyano-1-(2,6-dichloro-4-trifluoromethlphenyl)-5-dimethoxymethyl-4-trifluoromethylsulfonylpyrazole]	+ (active against 1 or more insects described above up to 100% mortality. This activity is indicated by a “+”)	+ (active against 1 or more insects described above up to 100% mortality. This activity is indicated by a “+”)	+ (active against 1 or more insects described above up to 100% mortality. This activity is indicated by a “+”)	+ (active against 1 or more insects described above up to 100% mortality. This activity is indicated by a “+”)	+ (active against 1 or more insects described above up to 100% mortality. This activity is indicated by a “+”)	+ (active against 1 or more insects described above up to 100% mortality. This activity is indicated by a “+”)	–	+ (active against 1 or more insects described above up to 100% mortality. This activity is indicated by a “+”)
COC(C#N)c1c(S(=O)(=O)C(F)(F)F)c(C#N)nn1-c1c(Cl)cc(C(F)(F)F)cc1Cl (stereo not shown) [Compound 16, 3-Cyano-5-{(1-cyano-1-methoxy)methyl}-1-(2,6-dichloro-4-trifluoromethylphenyl)-4-trifluoromethylsulfonylpyrazole]	+ (active against 1 or more insects described above up to 100% mortality. This activity is indicated by a “+”)	+ (active against 1 or more insects described above up to 100% mortality. This activity is indicated by a “+”)	+ (active against 1 or more insects described above up to 100% mortality. This activity is indicated by a “+”)	+ (active against 1 or more insects described above up to 100% mortality. This activity is indicated by a “+”)	–	–	+ (active against 1 or more insects described above up to 100% mortality. This activity is indicated by a “+”)	+ (active against 1 or more insects described above up to 100% mortality. This activity is indicated by a “+”)
